pIC50: −log10 of the molar value.
How the values were obtained:
[1] = target: P2X7 receptor (Homo sapiens (Human), UniProt Q99572); test: Human P2X7 channel calcium-influx assay (Fluo-8 NW, FLIPR TETRA, Bz-ATP stimulation); type: cell-based; conditions: HEK-293 cells stably transfected with P2X7 receptor, Low Divalent Cation Assay Buffer, read-out: hP2X7 IC50
Procedure: (§1) Extracellular binding of Bz-ATP to P2X7 receptor opens the channel and allows Ca^2+ influx into the cells. This Ca^2+ entry was measured in HEK-293 cells stably transfected with P2X7 receptor using Screen Quest™ Fluo-8 No Wash Calcium Assay Kit (AAt Bioquest®, cat. 36316). Once inside the cell, the lipophilic blocking groups of Fluo-8 are cleaved by non-specific cell esterases, resulting in a negatively-charged fluorescent dye that stays inside cells. Its fluorescence increases upon binding to calcium. When HEK-293/P2X7 cells are stimulated with Bz-ATP, Ca^2+ enters the cells and the fluorescence of Fluo-8 NW increases.
(§2) HEK-293 cells stably transfected with P2X7 receptor were seeded overnight in growth medium at 10,000 to 20,000 cells/well in 384-well plate. 24 hours later, the medium was removed, and the cells were pre-loaded at RT for 1 hour with 20 μL/w of Fluo-8 NW. Then 10 μL/w of test compounds and reference antagonist A438079 at 3X-concentration were injected with the […] and the kinetic response over a period of five minutes was monitored.

[2] = target: mP2X7 (Mus musculus (Mouse), UniProt Q9Z1M0); test: mP2X7 channel calcium-influx assay (Fluo-8 NW, FLIPR TETRA, Bz-ATP stimulation); type: cell-based
Sequence of mP2X7 (Q9Z1M0 whole entry): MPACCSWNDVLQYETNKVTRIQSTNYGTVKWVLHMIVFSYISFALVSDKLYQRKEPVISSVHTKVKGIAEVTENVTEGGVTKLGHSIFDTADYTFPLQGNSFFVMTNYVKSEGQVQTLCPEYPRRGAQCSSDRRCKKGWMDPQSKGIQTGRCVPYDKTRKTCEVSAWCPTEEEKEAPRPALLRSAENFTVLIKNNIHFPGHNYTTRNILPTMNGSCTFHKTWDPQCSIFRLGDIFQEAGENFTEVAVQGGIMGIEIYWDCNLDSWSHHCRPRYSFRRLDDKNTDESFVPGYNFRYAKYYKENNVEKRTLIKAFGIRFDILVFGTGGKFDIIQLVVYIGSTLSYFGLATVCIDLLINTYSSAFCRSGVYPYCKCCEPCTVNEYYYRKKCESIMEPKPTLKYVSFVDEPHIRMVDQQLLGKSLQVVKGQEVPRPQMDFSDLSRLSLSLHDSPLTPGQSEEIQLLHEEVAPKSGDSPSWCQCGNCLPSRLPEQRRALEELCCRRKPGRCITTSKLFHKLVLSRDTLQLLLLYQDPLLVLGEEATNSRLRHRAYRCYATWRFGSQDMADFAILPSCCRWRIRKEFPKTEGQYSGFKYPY
Procedure: as §1, §2

Sequence of P2X7 receptor (Q99572 whole entry): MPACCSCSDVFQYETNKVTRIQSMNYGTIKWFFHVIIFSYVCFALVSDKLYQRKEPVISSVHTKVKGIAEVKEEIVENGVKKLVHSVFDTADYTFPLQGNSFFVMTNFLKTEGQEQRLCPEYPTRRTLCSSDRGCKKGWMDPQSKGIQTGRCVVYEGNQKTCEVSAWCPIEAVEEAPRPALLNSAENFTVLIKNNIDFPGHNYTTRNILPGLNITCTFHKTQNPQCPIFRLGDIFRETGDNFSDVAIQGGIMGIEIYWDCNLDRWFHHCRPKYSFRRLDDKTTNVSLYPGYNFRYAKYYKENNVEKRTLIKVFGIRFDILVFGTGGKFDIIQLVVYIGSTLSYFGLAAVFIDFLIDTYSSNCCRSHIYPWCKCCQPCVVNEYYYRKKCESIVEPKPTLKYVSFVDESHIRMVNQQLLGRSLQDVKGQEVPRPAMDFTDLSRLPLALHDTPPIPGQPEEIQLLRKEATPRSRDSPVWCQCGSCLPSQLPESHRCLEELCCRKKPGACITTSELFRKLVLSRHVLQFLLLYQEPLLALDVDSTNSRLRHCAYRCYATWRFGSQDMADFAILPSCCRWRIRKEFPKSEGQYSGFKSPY

## O=C(NCC(c1scnc1C(F)F)N1CCC(Oc2ccccn2)CC1)c1c(F)cccc1Cl (stereo not drawn) [Example 1, 2-chloro-N-{2-[4-(difluoromethyl)-1,3-thiazol-5-yl]-2-[4-(pyridin-2-yloxy)piperidin-1-yl]ethyl}-6-fluorobenzamide]
[1]
  pIC50: 7.66
[2]
  pIC50: 7.27

## O=C(NCC(c1scnc1C(F)F)N1CCC(Oc2ncccn2)CC1)c1c(F)cccc1Cl (stereo not drawn) [Example 4, 2-chloro-N-{2-[4-(difluoromethyl)-1,3-thiazol-5-yl]-2-[4-(pyrimidin-2-yloxy)piperidin-1-yl]ethyl}-6-fluorobenzamide]
[1]
  pIC50: 7.24
[2]
  pIC50: 6.39

## O=C(NCC(c1scnc1C(F)F)N1CCC(Oc2ccncc2F)CC1)c1c(F)cccc1Cl (stereo not drawn) [Example 6, 2-chloro-N-{2-[4-(difluoromethyl)-1,3-thiazol-5-yl]-2-{4-[(3-fluoropyridin-4-yl)oxy]piperidin-1-yl}ethyl}-6-fluorobenzamide]
[1]
  pIC50: 7.30
[2]
  pIC50: 7.16

## O=C(NCC(c1scnc1C(F)F)N1CCC(Oc2nccs2)CC1)c1c(F)cccc1Cl (stereo not drawn) [Example 10, 2-chloro-N-{2-[4-(difluoromethyl)-1,3-thiazol-5-yl]-2-[4-(1,3-thiazol-2-yloxy)piperidin-1-yl]ethyl}-6-fluorobenzamide]
[1]
  pIC50: 7.63
[2]
  pIC50: 6.72

## O=C(NCC(c1scnc1C(F)F)N1CCC(Oc2nc(Cl)cs2)CC1)c1c(F)cccc1Cl (stereo not drawn) [Example 12, 2-Chloro-N-(2-{4-[(4-chloro-1,3-thiazol-2-yl)oxy]piperidin-1-yl}-2-[4-(difluoromethyl)-1,3-thiazol-5-yl]ethyl)-6-fluorobenzamide]
[1]
  pIC50: 7.93
[2]
  pIC50: 7.36

## N#Cc1cncc(OC2CCN(C(CNC(=O)c3c(F)cccc3Cl)c3scnc3C(F)F)CC2)c1 (stereo not drawn) [Example 16, 2-Chloro-N-(2-{4-[(5-cyanopyridin-3-yl)oxy]piperidin-1-yl}-2-[4-(difluoromethyl)-1,3-thiazol-5-yl]ethyl)-6-fluorobenzamide]
[1]
  pIC50: 7.24
[2]
  pIC50: 7.17

## N#Cc1nccnc1OC1CCN(C(CNC(=O)c2c(F)cccc2Cl)c2scnc2C(F)F)CC1 (stereo not drawn) [Example 17, 2-Chloro-N-(2-{4-[(3-cyanopyrazin-2-yl)oxy]piperidin-1-yl}-2-[4-(difluoromethyl)-1,3-thiazol-5-yl]ethyl)-6-fluorobenzamide]
[1]
  pIC50: 7.26
[2]
  pIC50: 6.49

## N#Cc1ncccc1OC1CCN(C(CNC(=O)c2c(F)cccc2Cl)c2scnc2C(F)F)CC1 (stereo not drawn) [Example 18, 2-Chloro-N-(2-{4-[(2-cyanopyridin-3-yl)oxy]piperidin-1-yl}-2-[4-(difluoromethyl)-1,3-thiazol-5-yl]ethyl)-6-fluorobenzamide]
[1]
  pIC50: 7.39
[2]
  pIC50: 6.73

## O=C(NCC(c1scnc1C(F)F)N1CCC(Oc2nc3ccccc3s2)CC1)c1c(F)cccc1Cl (stereo not drawn) [Example 20, N-{2-[4-(1,3-Benzothiazol-2-yloxy)piperidin-1-yl]-2-[4-(difluoromethyl)-1,3-thiazol-5-yl]ethyl}-2-chloro-6-fluorobenzamide]
[1]
  pIC50: 7.76
[2]
  pIC50: 7.85

## O=C(NCC(c1scnc1C(F)F)N1CCC(Oc2nc3ccccc3o2)CC1)c1c(F)cccc1Cl (stereo not drawn) [Example 22, N-{2-[4-(1,3-Benzoxazol-2-yloxy)piperidin-1-yl]-2-[4-(difluoromethyl)-1,3-thiazol-5-yl]ethyl}-2-chloro-6-fluorobenzamide]
[1]
  pIC50: 7.69
[2]
  pIC50: 7.91

## COCCc1nsc(OC2CCN(C(CNC(=O)c3c(F)cccc3Cl)c3scnc3C(F)F)CC2)n1 (stereo not drawn) [Example 23, 2-Chloro-N-{2-[4-(difluoromethyl)-1,3-thiazol-5-yl]-2-(4-{[3-(2-methoxyethyl)-1,2,4-thiadiazol-5-yl]oxy}piperidin-1-yl)ethyl}-6-fluorobenzamide]
[1]
  pIC50: 7.13
[2]
  pIC50: 6.74

## O=C(NCC(c1scnc1C(F)F)N1CCC(Oc2nc(-c3ccccc3)no2)CC1)c1c(F)cccc1Cl (stereo not drawn) [Example 24, 2-Chloro-N-{2-[4-(difluoromethyl)-1,3-thiazol-5-yl]-2-{4-[(3-phenyl-1,2,4-oxadiazol-5-yl)oxy]piperidin-1-yl}ethyl}-6-fluorobenzamide]
[1]
  pIC50: 7.01
[2]
  pIC50: 7.49

## O=C(NCC(c1scnc1C(F)F)N1CCC(Oc2nnnn2-c2ccccc2)CC1)c1c(F)cccc1Cl (stereo not drawn) [Example 25, 2-Chloro-N-{2-[4-(difluoromethyl)-1,3-thiazol-5-yl]-2-{4-[(1-phenyl-1H-1,2,3,4-tetrazol-5-yl)oxy]piperidin-1-yl}ethyl}-6-fluorobenzamide]
[1]
  pIC50: 7.24
[2]
  pIC50: 7.34

## Cc1cnc(OC2CCN(C(CNC(=O)c3c(F)cccc3Cl)c3scnc3C(F)F)CC2)nc1 (stereo not drawn) [Example 28, 2-Chloro-N-{2-[4-(difluoromethyl)-1,3-thiazol-5-yl]-2-{4-[(5-methylpyrimidin-2-yl)oxy]piperidin-1-yl}ethyl}-6-fluorobenzamide]
[1]
  pIC50: 7.19
[2]
  pIC50: 6.69

## Cc1ccc(OC2CCN(C(CNC(=O)c3c(F)cccc3Cl)c3scnc3C(F)F)CC2)nn1 (stereo not drawn) [Example 29, 2-Chloro-N-{2-[4-(difluoromethyl)-1,3-thiazol-5-yl]-2-{4-[(6-methylpyridazin-3-yl)oxy]piperidin-1-yl}ethyl}-6-fluorobenzamide]
[1]
  pIC50: 7.50
[2]
  pIC50: 7.06

## O=C(NCC(c1scnc1C(F)F)N1CCC(Oc2ccc(F)cn2)CC1)c1c(F)cccc1Cl (stereo not drawn) [Example 30, 2-Chloro-N-{2-[4-(difluoromethyl)-1,3-thiazol-5-yl]-2-{4-[(5-fluoropyridin-2-yl)oxy]piperidin-1-yl}ethyl}-6-fluorobenzamide]
[1]
  pIC50: 7.76
[2]
  pIC50: 7.62

## O=C(NCC(c1scnc1C(F)F)N1CCC(Oc2cc(F)ncn2)CC1)c1c(F)cccc1Cl (stereo not drawn) [Example 31, 2-Chloro-N-{2-[4-(difluoromethyl)-1,3-thiazol-5-yl]-2-{4-[(6-fluoropyrimidin-4-yl)oxy]piperidin-1-yl}ethyl}-6-fluorobenzamide]
[1]
  pIC50: 7.21
[2]
  pIC50: 6.87

## O=C(NCC(c1scnc1C(F)F)N1CCC(Oc2cncc(F)n2)CC1)c1c(F)cccc1Cl (stereo not drawn) [Example 33, 2-Chloro-N-{2-[4-(difluoromethyl)-1,3-thiazol-5-yl]-2-{4-[(6-fluoropyrazin-2-yl)oxy]piperidin-1-yl}ethyl}-6-fluorobenzamide]
[1]
  pIC50: 7.40
[2]
  pIC50: 7.28

## O=C(NCC(c1scnc1C(F)F)N1CCC(Oc2nccnc2F)CC1)c1c(F)cccc1Cl (stereo not drawn) [Example 34, 2-Chloro-N-{2-[4-(difluoromethyl)-1,3-thiazol-5-yl]-2-{4-[(3-fluoropyrazin-2-yl)oxy]piperidin-1-yl}ethyl}-6-fluorobenzamide]
[1]
  pIC50: 7.26
[2]
  pIC50: 6.76

## O=C(NCC(c1scnc1C(F)F)N1CCC(Oc2ccnc(F)n2)CC1)c1c(F)cccc1Cl (stereo not drawn) [Example 35, 2-Chloro-N-{2-[4-(difluoromethyl)-1,3-thiazol-5-yl]-2-{4-[(2-fluoropyrimidin-4-yl)oxy]piperidin-1-yl}ethyl}-6-fluorobenzamide]
[1]
  pIC50: 7.15
[2]
  pIC50: 6.72

## N#Cc1cccnc1OC1CCN(C(CNC(=O)c2c(F)cccc2Cl)c2scnc2C(F)F)CC1 (stereo not drawn) [Example 36, 2-Chloro-N-(2-{4-[(3-cyanopyridin-2-yl)oxy]piperidin-1-yl}-2-[4-(difluoromethyl)-1,3-thiazol-5-yl]ethyl)-6-fluorobenzamide]
[1]
  pIC50: 7.27
[2]
  pIC50: 6.90

## N#Cc1cccc(OC2CCN(C(CNC(=O)c3c(F)cccc3Cl)c3scnc3C(F)F)CC2)n1 (stereo not drawn) [Example 37, 2-Chloro-N-(2-{4-[(6-cyanopyridin-2-yl)oxy]piperidin-1-yl}-2-[4-(difluoromethyl)-1,3-thiazol-5-yl]ethyl)-6-fluorobenzamide]
[1]
  pIC50: 7.55
[2]
  pIC50: 7.55

## N#Cc1ccncc1OC1CCN(C(CNC(=O)c2c(F)cccc2Cl)c2scnc2C(F)F)CC1 (stereo not drawn) [Example 38, 2-Chloro-N-(2-{4-[(4-cyanopyridin-3-yl)oxy]piperidin-1-yl}-2-[4-(difluoromethyl)-1,3-thiazol-5-yl]ethyl)-6-fluorobenzamide]
[1]
  pIC50: 7.24
[2]
  pIC50: 7.10

## Cc1nc(F)cc(OC2CCN(C(CNC(=O)c3c(F)cccc3Cl)c3scnc3C(F)F)CC2)n1 (stereo not drawn) [Example 39, 2-Chloro-N-{2-[4-(difluoromethyl)-1,3-thiazol-5-yl]-2-{4-[(6-fluoro-2-methylpyrimidin-4-yl)oxy]piperidin-1-yl}ethyl}-6-fluorobenzamide]
[1]
  pIC50: 7.29
[2]
  pIC50: 7.35

## Cc1c(F)ncnc1OC1CCN(C(CNC(=O)c2c(F)cccc2Cl)c2scnc2C(F)F)CC1 (stereo not drawn) [Example 40, 2-Chloro-N-{2-[4-(difluoromethyl)-1,3-thiazol-5-yl]-2-{4-[(6-fluoro-5-methylpyrimidin-4-yl)oxy]piperidin-1-yl}ethyl}-6-fluorobenzamide]
[1]
  pIC50: 7.49
[2]
  pIC50: 7.30

## O=C(NCC(c1scnc1C(F)F)N1CCC(Oc2nccc(C(F)(F)F)n2)CC1)c1c(F)cccc1Cl (stereo not drawn) [Example 42, 2-Chloro-N-{2-[4-(difluoromethyl)-1,3-thiazol-5-yl]-2-(4-{[4-(trifluoromethyl)pyrimidin-2-yl]oxy}piperidin-1-yl)ethyl}-6-fluorobenzamide]
[1]
  pIC50: 7.22
[2]
  pIC50: 6.97

## O=C(NCC(c1scnc1C(F)F)N1CCC(Oc2cc(C(F)(F)F)ncn2)CC1)c1c(F)cccc1Cl (stereo not drawn) [Example 43, 2-Chloro-N-{2-[4-(difluoromethyl)-1,3-thiazol-5-yl]-2-(4-{[6-(trifluoromethyl)pyrimidin-4-yl]oxy}piperidin-1-yl)ethyl}-6-fluorobenzamide]
[1]
  pIC50: 7.16
[2]
  pIC50: 7.19
